This is an account of results in patent US20220153745A1, “DISUBSTITUTED BENZOTHIENYL-PYRROLOTRIAZINES AND THEIR USE AS FGFR KINASE INHIBITORS” (Bayer Intellectual Property GmbH, priority 2011, published 2022).

Structures can show the parent of a compound that is named as a salt.

The target in one experiment is T1, mTOR (Homo sapiens, UniProt P42345).
T1 construct: human mTOR amino acids from 1360 to 2549; purchased Invitrogen 4753; host or cells: insect cells
In words: mTOR kinase assay (TR-FRET, for comparative purposes). Format: biochemical. The settings on record: for inhibition at 1 µM: read-out: mTOR % inhibition @ 1 μM, mean inhibition at 1 μM test compound, 40 μM ATP. (In TR-FRET formats the signal depends on donor and acceptor labels being close together.)

Experiment [1] deals with Human umbilical vein endothelial cells (HUVEC). In words: Inhibition of hFGF-2 mediated HUVEC proliferation. Format: cell-based. The note with it: 72 h.

A word on the inhibition: it is how much of the control response was suppressed. The IC50 is the point on the concentration scale where inhibition reaches its midpoint. A high value points to weaker potency in that assay.

T1 sequence (P42345 1360-2549): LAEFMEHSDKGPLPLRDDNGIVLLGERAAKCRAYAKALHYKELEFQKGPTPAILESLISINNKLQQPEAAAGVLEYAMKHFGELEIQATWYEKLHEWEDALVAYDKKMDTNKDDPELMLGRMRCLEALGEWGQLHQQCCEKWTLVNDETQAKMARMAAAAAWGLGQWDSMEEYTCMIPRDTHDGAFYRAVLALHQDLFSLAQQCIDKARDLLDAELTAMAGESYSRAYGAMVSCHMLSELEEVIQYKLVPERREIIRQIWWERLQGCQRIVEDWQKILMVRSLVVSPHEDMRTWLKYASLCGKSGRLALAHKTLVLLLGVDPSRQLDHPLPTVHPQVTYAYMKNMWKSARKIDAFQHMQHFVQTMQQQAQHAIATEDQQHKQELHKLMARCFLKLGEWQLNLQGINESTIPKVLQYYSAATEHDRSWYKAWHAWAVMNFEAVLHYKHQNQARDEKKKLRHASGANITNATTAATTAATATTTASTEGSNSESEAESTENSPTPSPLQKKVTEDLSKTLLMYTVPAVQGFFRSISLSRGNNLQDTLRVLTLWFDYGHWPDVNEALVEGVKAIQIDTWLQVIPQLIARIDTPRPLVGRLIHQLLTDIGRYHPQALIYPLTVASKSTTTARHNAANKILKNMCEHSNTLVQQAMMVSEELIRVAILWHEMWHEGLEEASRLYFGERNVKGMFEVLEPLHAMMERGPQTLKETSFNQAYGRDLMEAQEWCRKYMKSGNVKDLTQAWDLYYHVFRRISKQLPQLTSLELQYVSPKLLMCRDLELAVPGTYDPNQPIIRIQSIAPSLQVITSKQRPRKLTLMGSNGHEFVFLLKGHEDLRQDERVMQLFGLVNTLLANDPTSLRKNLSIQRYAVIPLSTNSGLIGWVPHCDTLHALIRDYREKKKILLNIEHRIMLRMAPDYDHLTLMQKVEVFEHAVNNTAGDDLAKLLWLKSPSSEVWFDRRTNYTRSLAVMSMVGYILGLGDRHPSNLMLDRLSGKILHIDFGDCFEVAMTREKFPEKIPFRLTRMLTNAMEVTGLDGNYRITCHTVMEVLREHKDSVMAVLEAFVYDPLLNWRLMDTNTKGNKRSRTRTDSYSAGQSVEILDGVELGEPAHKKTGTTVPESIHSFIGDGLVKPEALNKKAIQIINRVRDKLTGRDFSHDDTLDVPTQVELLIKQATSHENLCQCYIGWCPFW

Consider `COc1cc(C)cc2cc(-c3c(CO)c(C#N)n4ncnc(N)c34)sc12` [Example 68, 4-Amino-6-(hydroxymethyl)-5-(7-methoxy-5-methyl-1-benzothiophen-2-yl)pyrrolo[2,1-f][1,2,4]-triazine-7-carbonitrile], for which the inhibition at 1 µM at mTOR came out at 8%. This molecule also returned an IC50 in experiment [1] of 14.4 nM. For `COc1cc(C)cc2cc(-c3c(CNCC(C)(C)O)c(CN4CCN(C(C)=O)CC4)n4ncnc(N)c34)sc12` [Example 57, 1-(4-{[4-Amino-6-{[(2-hydroxy-2-methylpropyl)amino]methyl}-5-(7-methoxy-5-methyl-1-benzothiophen-2-yl)pyrrolo[2,1-f][1,2,4]triazin-7-yl]methyl}piperazin-1-yl)ethanone], in that order: 2% and 3.2 nM. For `COc1cc(C)cc2cc(-c3c(CO)c(C(C)(C)O)n4ncnc(N)c34)sc12` [Example 73, 2-[4-Amino-6-(hydroxymethyl)-5-(7-methoxy-5-methyl-1-benzothiophen-2-yl)pyrrolo[2,1-f][1,2,4]-triazin-7-yl]propan-2-ol], in that order: 18.5% and 5.5 nM. On the same counts, the results for `COc1cc(C)cc2cc(-c3c(CN4CCNC(=O)C4)c(C)n4ncnc(N)c34)sc12` [Example 76, 4-{[4-Amino-5-(7-methoxy-5-methyl-1-benzothiophen-2-yl)-7-methylpyrrolo[2,1-f][1,2,4]triazin-6-yl]methyl}piperazin-2-one] are 8.5% and 1.5 nM.

Regarding `COc1cc(C)cc2cc(-c3c(CNC(C)=O)c(CNC(C)=O)n4ncnc(N)c34)sc12` [Example 72, N,N′-{[4-Amino-5-(7-methoxy-5-methyl-1-benzothiophen-2-yl)pyrrolo[2,1-f][1,2,4]triazine-6,7-diyl]bis(methylene)}diacetamide], at mTOR, the inhibition at 1 µM came to 8.2%. For the same molecule, in experiment [1], the 50% inhibitory concentration (IC50) worked out at 1.6 nM. On the same counts, the results for `COc1cc(C)cc2cc(-c3c(CNCC(C)(C)O)c(CN4CCOCC4)n4ncnc(N)c34)sc12` [Example 54, 1-({[4-Amino-5-(7-methoxy-5-methyl-1-benzothiophen-2-yl)-7-(morpholin-4-ylmethyl)pyrrolo[2,1-f][1,2,4]triazin-6-yl]methyl}amino)-2-methylpropan-2-ol] are 1.7% and 2.2 nM. For `COc1cc(C)cc2cc(-c3c(CO)c(C)n4ncnc(N)c34)sc12` [Example 75, [4-Amino-5-(7-methoxy-5-methyl-1-benzothiophen-2-yl)-7-methylpyrrolo[2,1-f][1,2,4]triazin-6-yl]-methanol], in that order: 10.2% and 1.5 nM.

Turning to `COc1cc(C)cc2cc(-c3c(CN[C@H]4CCNC4=O)c(CN4CCOCC4)n4ncnc(N)c34)sc12` [Example 51, (3S)-3-({[4-Amino-5-(7-methoxy-5-methyl-1-benzothiophen-2-yl)-7-(morpholin-4-ylmethyl)pyrrolo[2,1-f][1,2,4]triazin-6-yl]methyl}amino)pyrrolidin-2-one], the inhibition at 1 µM on mTOR was determined as 8.4%. Further, the half-inhibitory concentration (IC50) in experiment [1] came to 1.2 nM. Turning to `COc1cc(C)cc2cc(-c3c(C)c(CN4CCNCC4)n4ncnc(N)c34)sc12` [Example 84, 5-(7-Methoxy-5-methyl-1-benzothiophen-2-yl)-6-methyl-7-(piperazin-1-ylmethyl)pyrrolo[2,1-f][1,2,4]triazin-4-amine formiate], on mTOR, the inhibition at 1 µM turned out to be 9.1%. The molecule further displayed an IC50 in experiment [1] of 46.6 nM. For `COc1cc(C)cc2cc(-c3c(CN4CCNC(=O)C4)c(CN4CCN(C(C)=O)CC4)n4ncnc(N)c34)sc12` [Example 59, 4-({7-[(4-Acetylpiperazin-1-yl)methyl]-4-amino-5-(7-methoxy-5-methyl-1-benzothiophen-2-yl)pyrrolo[2,1-f][1,2,4]triazin-6-yl}methyl)piperazin-2-one], in that order: 0.8% and 51.1 nM.

On to `COc1cc(C)cc2cc(-c3c(CO)c(Cl)n4ncnc(N)c34)sc12` [Example 79, [4-Amino-7-chloro-5-(7-methoxy-5-methyl-1-benzothiophen-2-yl)pyrrolo[2,1-f][1,2,4]triazin-6-yl]-methanol], for which the inhibition at 1 µM on mTOR turned out to be 14.7%. In addition, the IC50 in experiment [1] amounted to 3.5 nM.

With `COc1cc(C)cc2cc(-c3c(CO)c(CN4CCNC(=O)C4)n4ncnc(N)c34)sc12` [Example 13, 4-{[4-Amino-6-(hydroxymethyl)-5-(7-methoxy-5-methyl-1-benzothiophen-2-yl)pyrrolo[2,1-f][1,2,4]-triazin-7-yl]methyl}piperazin-2-one], the inhibition at 1 µM at mTOR was 14.9%. Moreover, it took 17 nM to reach half-maximal inhibition in experiment [1] (IC50). On the same counts, the results for `COc1cc(C)cc2cc(-c3c(CNCC(C)(C)O)c(Cl)n4ncnc(N)c34)sc12` [Example 81, 1-({[4-Amino-7-chloro-5-(7-methoxy-5-methyl-1-benzothiophen-2-yl)pyrrolo[2,1-f][1,2,4]triazin-6-yl]methyl}amino)-2-methylpropan-2-ol formiate] are 4.1% and 1.6 nM.

For the molecule `COc1cc(C)cc2cc(-c3c(CNC(C)=O)c(CN4CCNC(=O)C4)n4ncnc(N)c34)sc12` [Example 67, N-({4-Amino-5-(7-methoxy-5-methyl-1-benzothiophen-2-yl)-7-[(3-oxopiperazin-1-yl)methyl]-pyrrolo[2,1-f][1,2,4]triazin-6-yl}methyl)acetamide], the inhibition at 1 µM on mTOR worked out at 8.4%. This molecule also had a half-maximal inhibitory concentration (IC50) in experiment [1] of 12.1 nM. On the same counts, the results for `COc1cc(C)cc2cc(-c3c(CN4CCNC(=O)C4)c(C(C)(C)O)n4ncnc(N)c34)sc12` [Example 74, 4-{[4-Amino-7-(2-hydroxypropan-2-yl)-5-(7-methoxy-5-methyl-1-benzothiophen-2-yl)pyrrolo[2,1-f][1,2,4]triazin-6-yl]methyl}piperazin-2-one] are 18.6% and 0.2 nM. On to `COc1cc(C)cc2cc(-c3c(COCC(F)(F)F)c(CN4CCNCC4)n4ncnc(N)c34)sc12` [Example 29, 5-(7-Methoxy-5-methyl-1-benzothiophen-2-yl)-7-(piperazin-1-ylmethyl)-6-[(2,2,2-trifluoroethoxy)methyl]pyrrolo[2,1-f][1,2,4]triazin-4-amine formiate], for which the inhibition at 1 µM at mTOR amounted to 28.5%. On the same count and under the same terms, the value for `COc1cc(C)cc2cc(-c3c(CN4CCNC(=O)C4)c(Cl)n4ncnc(N)c34)sc12` [Example 80, 4-{[4-Amino-7-chloro-5-(7-methoxy-5-methyl-1-benzothiophen-2-yl)pyrrolo[2,1-f][1,2,4]triazin-6-yl]methyl}piperazin-2-one] was 3.9%. The same measure, in the same setting: in the case of `COc1cc(C)cc2cc(-c3c(COc4ccccc4)c(CN4CCNCC4)n4ncnc(N)c34)sc12` [Example 35, 5-(7-Methoxy-5-methyl-1-benzothiophen-2-yl)-6-(phenoxymethyl)-7-(piperazin-1-ylmethyl)pyrrolo[2,1-f][1,2,4]triazin-4-amine bis(formiate)] it was 1.4%. Regarding `CNCc1c(-c2cc3cc(C)cc(OC)c3s2)c2c(N)ncnn2c1CN1CCNCC1` [Example 36, 5-(7-Methoxy-5-methyl-1-benzothiophen-2-yl)-6-[(methylamino)methyl]-7-(piperazin-1-ylmethyl)pyrrolo[2,1-f][1,2,4]triazin-4-amine trihydrochloride], the inhibition at 1 µM on mTOR stood at 14.4%. As for `COC(=O)COCc1c(-c2cc3cc(C)cc(OC)c3s2)c2c(N)ncnn2c1CN1CCNCC1` [Example 31, Methyl {[4-amino-5-(7-methoxy-5-methyl-1-benzothiophen-2-yl)-7-(piperazin-1-ylmethyl)pyrrolo[2,1-f][1,2,4]triazin-6-yl]methoxy}acetate], on mTOR, the inhibition at 1 µM turned out to be 16.3%. As for `COc1cc(C)cc2cc(-c3c(CNCC(=O)O)c(CN4CCNCC4)n4ncnc(N)c34)sc12` [Example 48, N-{[4-Amino-5-(7-methoxy-5-methyl-1-benzothiophen-2-yl)-7-(piperazin-1-ylmethyl)pyrrolo[2,1-f]-[1,2,4]triazin-6-yl]methyl}glycine trihydrochloride], the inhibition at 1 µM on mTOR was 4.1%. Same read-out and setting: the value for `CCOCc1c(-c2cc3cc(C)cc(OC)c3s2)c2c(N)ncnn2c1CN1CCNC(=O)C1` [Example 5, 4-{[4-Amino-6-(ethoxymethyl)-5-(7-methoxy-5-methyl-1-benzothiophen-2-yl)pyrrolo[2,1-f][1,2,4]-triazin-7-yl]methyl}piperazin-2-one] was 9.7%. Take `COc1cc(C)cc2cc(-c3c(CNCC(C)(C)O)c(Cl)n4ncnc(N)c34)sc12` [Example 82, 1-({[4-Amino-7-chloro-5-(7-methoxy-5-methyl-1-benzothiophen-2-yl)pyrrolo[2,1-f][1,2,4]triazin-6-yl]methyl}amino)-2-methylpropan-2-ol]: the “mTOR % inhibition @ 1 μM” value on mTOR (mean inhibition at 1 μM test compound, 40 μM ATP) was determined as 7.1%.

On to `CCOCc1c(-c2cc3cc(C)cc(OC)c3s2)c2c(N)ncnn2c1C#N` [Example 70, 4-Amino-6-(ethoxymethyl)-5-(7-methoxy-5-methyl-1-benzothiophen-2-yl)pyrrolo[2,1-f][1,2,4]-triazine-7-carbonitrile], for which the inhibition at 1 µM at mTOR was 5.8%.

Take `CCN(CC)Cc1c(-c2cc3cc(C)cc(OC)c3s2)c2c(N)ncnn2c1CN1CCNCC1` [Example 43, 6-[(Diethylamino)methyl]-5-(7-methoxy-5-methyl-1-benzothiophen-2-yl)-7-(piperazin-1-ylmethyl)pyrrolo[2,1-f][1,2,4]triazin-4-amine trihydrochloride]: the inhibition at 1 µM on mTOR is 10.1%. Regarding `COCc1c(-c2cc3cc(C)cc(OC)c3s2)c2c(N)ncnn2c1CN1CCNCC1` [Example 17, 6-(Methoxymethyl)-5-(7-methoxy-5-methyl-1-benzothiophen-2-yl)-7-(piperazin-1-ylmethyl)pyrrolo[2,1-f][1,2,4]triazin-4-amine formiate], on mTOR, the inhibition at 1 µM turned out to be 6.7%. As to `COc1cc(C)cc2cc(-c3c(COCC(N)=O)c(CN4CCNCC4)n4ncnc(N)c34)sc12` [Example 33, 2-{[4-Amino-5-(7-methoxy-5-methyl-1-benzothiophen-2-yl)-7-(piperazin-1-ylmethyl)pyrrolo[2,1-f][1,2,4]triazin-6-yl]methoxy}acetamide], on mTOR, the inhibition at 1 µM came to 0.9%.
